Data published in patent US5055396A, “Diagnostic methods and systems for quantifying APO AI” (Scripps Clinic and Research Foundation, priority 1987, dated 1991).

Tests used:
MAB AI-18 [1] = assay: Solid-phase polypeptide competitive ELISA (AI90-105 coated wells, HRP-type labeled MAB AI-18); format: binding, mouse; settings: reference material: pool of about 20 normal plasmas; FIG. 8
Description: Six hundred microliters of 25 mM NH4 HCO3, pH 9.6, containing polypeptide AI90-105 at a concentration of 5 mg/ml were admixed with 119.4 ml of 0.1M NaHC)3, pH 9.0, to form a peptide coating solution. One hundred fifty microliters of the coating solution were admixed into the wells of flexible polyvinyl chloride microtiter plates (Nunc, Source). The wells were then maintained about 16-20 hours at 4 degrees C. to permit the peptide to adsorb onto (coat) the walls of the wells. After removing the peptide coating solution by shaking, the wells were washed once with 350 ul of rinsing buffer (PBS containing 1 gm/l BSA, 0.5 ml/l Tween 20, and 2 ul/l aprotinin). Excess protein binding sites were blocked by admixing 200 ul of blocking buffer (PBS containing 3% BSA) into each well, maintaining the wells for 1 hour at 20 degrees C., removing the blocking buffer by shaking, and then washing the wells 3 times as previously described. […]
Two hundred microliters of OPD substrate were then admixed into each well to form a developing-reaction admixture, which was maintained for 30 minutes at about 20 degrees C. Subsequently, 50 ul of 4N H2 SO4 were admixed into each well to stop the developing-reaction, and the resulting solution were assayed for absorbance at 490 nanometers using a microtiter plate reader (Dynatech). […]

MAB AI-18 [2] = assay: Competitive RIA: inhibition of MAB AI-18 binding to solid-phase Apo AI/HDL by competitor antigen or peptide; design: species or system mouse; settings: competitive RIA; MAB AI-18 ascites 1:1.25×10^5; solid-phase Apo AI/HDL
Description: One hundred ul of PBS (0.15M NaCl, 0.01M NaPO4, pH 7.2) containing 10 ug/ml Apo AI/HDL were admixed to the wells of microtiter plates. The plates were maintained for 1 hour at 20 degrees C. on a rotating platform to allow the Apo AI/HDL to adhere to the wells and form solid supports. After aspirating excess liquid from the wells, 200 ul of block solution (3% BSA, 3% NGS in PBS) was admixed to each well, and the wells were maintained for 30 minutes at 20 degrees C. on a rotating platform. Subsequently, the blocking solution was removed by aspiration and the wells were washed 3 times with SPRIA buffer.
In control wells either competing antigen or antibody was replaced by PBS containing 3% BSA.
The immunoreaction admixtures were maintained about 16 hours at 4 degrees C. on a rotating platform to permit formation of solid-phase immunoreaction products. […] The labeling immunoreaction admixtures so formed were maintained for 4 hours at 4 degrees C. on a rotating platform.
[…] of serial 3 fold dilutions of each sample prepared in Table 3 were admixed as competitor in the RIA described in this Example.
Fifty microliters of the stock of 2 fold serial dilutions of the stock were used as competitor in the RIA described in this Example.

LEEVKAKVQPYLDDFQ [AI90-105] was tested. Which “immunoreactivity of MAB AI-18 for peptide compared with reference material” value (MAB AI-18 [1]) did it give?
The value was “equivalent immunoreactivities”.

What about the “Immunoreactivity (concentration of peptide competitor required to achieve a B/Bo value of 0.5)” value (MAB AI-18 [2]) of the same sequence?
The value was 30 ug protein/ml.
